This test deals with D2.B10 mice. Kind of test: Myofiber cross-sectional area (CSA) in D2.B10 mice. It counts as in vivo, mouse (D2.B10-Dmd^mdx/J). The settings on record: for TA CSA / GAS CSA: D2.B10 mice, Givinostat 37.5 mg/kg. The text has this: Tibialis anterior (TA), gastrocnemius (GAS), DIA, and heart were collected from mice maintained under isoflurane anesthesia and sacrificed by cervical dislocation. These muscles were collected from C57BL/10J wt and mdx (5 mice/group) at the end of treatments and from DBA/2J wt and D2.B10 mice (5 mice/group) at two different time points to be examined by a pathologist (for more details see Additional Table 1). Due to the results obtained by the functional tests, muscles from only some treatment groups were analyzed in both DMD models (see Additional Table 1). All the collected muscles were fixed in 10% buffered formalin solution (Bio-optica, Milan, Italy) at + 4 °C for at least 48 h. After fixation, muscular samples were transversely trimmed, caged, and paraffin embedded overnight with an Automated Vacuum Tissue Processor Floor (ETP, Histo-Line Laboratories) and included in paraffin blocks. Serial transverse cross-sections (4 μm thick) were cut with a microtome (Leica RM 2255), collected onto uncoated glass slides, and stained using a standard protocol for hematoxylin and eosin (Mayer hematoxylin & Aqueous G Eosin 1%, Bio-Optica) and Sirius Red staining (Direct Red 80, Sigma-Aldrich). For the image analysis and quantitation, hematoxylin and eosin- and Sirius Red-stained slides were examined with an Olympus BX51 light microscope. From each sample, 1 to 3 random microphotographs at the magnification of × 4 and × 10 (TA, GAS and heart) or × 20 (DIA) were collected using Image-Pro Plus system. The digital images were processed by a pathologist using ImageJ software (U.S. National Institutes of Health, Bethesda, MD, USA). To quantify CSA and centralized nuclei (%) on hematoxylin and eosin-stained sections, one hundred myofibers were manually measured for each muscle/mouse using a tablet pen (Wacom Intruos) and analyzed by the ImageJ software after a linear calibration of 150 μm. The fibrotic area, corresponding to the area stained in red, was compared to the total area of the tissue section, and the results were expressed as percentage fibrosis. The % of fibrosis of muscles in the different treatment groups was expressed by averaging the three values obtained from each muscle.
The deciles of the CSA of the animals treated with Givinostat at the different doses were plotted against the corresponding deciles of the vehicle-treated mice and a linear regression analysis was performed on natural [CSAtreated = b CSAcontrol + a] and log_transformed data [log(CSAtreated) = log(a) + b log(CSAcontrol)]. […] In case of untransformed data, this means that the effect of Givinostat treatment is additive and any decile of the CSAtreatment distribution may be derived from the control data summing up a constant quantity (S) to each fiber AREA of the control group (CSAtreated = CSAcontrol + S). In case of log_transformed data, the effect of Givinostat has to be considered as a multiplicative factor on any generic fiber of the muscle under evaluation, whose size, after the treatment, results K times larger in comparison to the control group value (CSAtreated […] = K × CSAcontrol, with K = 10^a). The S or K parameter values were then determined through an iterative estimation procedure, based on sum of squares (SSQ) minimization, directly comparing the CSA distribution observed in treated animals with that obtained summing up the S value or multiplying by K the CSA values of the control group.

The mark [1] stands for this setting: T8, prednisone 1 mg/kg (vehicle 600).
The mark [2] stands for this setting: T8, prednisone 1 mg/kg (vehicle 1050).
Setting [3] is: T16, prednisone 1 mg/kg (vehicle 300).

SMILES strings stand for the structures.

Take `CCN(CC)Cc1ccc2cc(COC(=O)Nc3ccc(C(=O)NO)cc3)ccc2c1` [Givinostat]: the “TA CSA” value runs as follows: under setting [1], 300 μm^2; under setting [3], 300 μm^2. Moreover, the “GAS CSA” value under setting [2] was 600 μm^2 and the “GAS CSA” value under setting [3] is 450 μm^2.
As to `C[C@]12C=CC(=O)C=C1CC[C@@H]1[C@@H]2C(=O)C[C@@]2(C)[C@H]1CC[C@]2(O)C(=O)CO` [prednisone], the “TA CSA” value reads like this: under setting [1], 300 μm^2; under setting [3], 300 μm^2. The “GAS CSA” value is, setting by setting: under setting [2], 600 μm^2; under setting [3], 300 μm^2. Further, the “Effect of steroid on cross-sectional area and centralized nuclei” value (D2.B10 muscles, 1 mg/kg i.p. weekly) is “unable to affect cross-sectional area or the number of centralized nuclei”.

The record behind these values is article PMC8296708, “The pan HDAC inhibitor Givinostat improves muscle function and histological parameters in two Duchenne muscular dystrophy murine models expressing different haplotypes of the LTBP4 gene” (Skeletal Muscle, 2021).
